The IC50 is the point on the concentration scale where inhibition reaches its midpoint.

The text below walks through data of patent US10858347B2, “Multicyclic compounds and uses thereof” (Karyopharm Therapeutics Inc., priority 2015, dated 2020).

In assay [1] the test system is 3T3 cells. In words: MTT cell proliferation assay, 3T3 cells. It is filed as cell-based. The conditions noted are these: 3T3 cells (standard fibroblast cells, Swiss mouse embryo), approximately 64-72 hours incubation. The method, then:
(§1) The MTT cell proliferation assay was used to study the cytotoxic properties of the compounds. The assay was performed according to the method described by Roche Molecular Biochemicals, with minor modifications. The assay is based on the cleavage of the tetrazolium salt, MTT, in the presence of an electron-coupling reagent. The water-insoluble formazan salt produced must be solubilized in an additional step. Cells grown in a 96-well tissue culture plate were incubated with the MTT solution for approximately 4 hours. After this incubation period, a water-insoluble formazan dye formed. After solubilization, the formazan dye was quantitated using a scanning multi-well spectrophotometer (ELISA reader). […] The cells were seeded at 5,000-10,000 cells in each well of 96-well plate in 100 μL of fresh culture medium and were allowed to attach overnight. The stock solutions of the compounds were diluted in 100 μL cell culture medium to obtain eight concentrations of each test compound, ranging from 1 nM to 30 μM. […] All optical densities were measured at 490 nm using a Vmax Kinetic Microplate Reader (Molecular Devices). In most cases, the assay was performed in duplicate and the results were presented as a mean percent inhibition to the negative control±SE. The following formula was used to calculate the percent of inhibition: Inhibition (%)=(1−(ODo/OD))×100.
(§2) The compounds were tested against MS751, Z138 and 3T3 cells. The MS751 cell line is derived from a metastasis to lymph node of human cervix from a patient diagnosed with squameous cell carcinoma of the cervix. The Z138 cell line is a mature B-cell acute lymphoblastic leukemia cell line derived from a patient with chronic lumphocytic leukemia. 3T3 cells are standard fibroblast cells; they were originally isolated from Swiss mouse embryo tissue.
In general terms: Formazan colour is commonly taken as a measure of viable cells.

In assay [2] the test system is Z138 cells. In words: MTT cell proliferation assay, Z138 cells. Type of assay: cell-based, human. To be noted: Z138 cells (mature B-cell acute lymphoblastic leukemia cell line), approximately 64-72 hours incubation. The method, then: as §1, §2
For assay [3], the system named is MS751 cells. As to the kind of experiment: MTT cell proliferation assay, MS751 cells. It is filed as cell-based. To be noted: MS751 cells (human cervix squamous cell carcinoma, lymph node metastasis); approximately 64-72 hours incubation. The procedure:
as §1, §2

Where two headings read alike, the source gives them in different places. Some results are limits rather than exact numbers.

Consider `Nc1ccc(CNC(=O)NCc2cc3cc(-c4ccc(C(=O)N5CC(F)(F)C5)cc4)cc(C(F)(F)F)c3o2)cn1` [Compound 117, 1-((6-aminopyridin-3-yl)methyl)-3-((5-(4-(3,3-difluoroazetidine-1-carbonyl)phenyl)-7-(trifluoromethyl)benzofuran-2-yl)methyl)urea], for which the IC50 in assay [1] (NIH3T3) was greater than 10 µM; in assay [2] (Homo sapiens, Z-138), 5 to 10 µM.
`N#C/N=C(\NCc1cc2cc(-c3ccc(C(=O)N4CCC(F)(F)CC4)cc3)cc(-c3ccc(F)cc3)c2o1)Nc1ccc(N)nc1` [Compound 118, (E)-1-(6-aminopyridin-3-yl)-2-cyano-3-((5-(4-(4,4-difluoropiperidine-1-carbonyl)phenyl)-7-(4-fluorophenyl)benzofuran-2-yl)methyl)guanidine]: the IC50 in assay [3] was greater than 10 µM; in assay [1] (NIH3T3), greater than 10 µM; in assay [2] (Homo sapiens, Z-138), greater than 10 µM.
In the case of “1-((6-aminopyridin- 3-yl)methyl)-3-(2-((4- (4,4-difluoropiperidine- 1-carbonyl)-4″- fluoro-[1,1′:3′,1″- terphenyl]-4′- yl)oxy)ethyl)urea [Compound 124]”, the IC50 in assay [1] was greater than 10 µM; in assay [2] (read-out: Z-138 MTT (IC50; μM)) it was less than 0.1 µM.
As to `Nc1ccc(C2CN(C(=O)NCc3cc4cc(-c5ccc(C(=O)N6CCC(F)(F)CC6)cc5)cc(-c5ccc(F)cc5)c4o3)C2)cn1` [Compound 103, 3-(6-aminopyridin-3-yl)-N-((5-(4-(4,4-difluoropiperidine-1-carbonyl)phenyl)-7-(4-fluorophenyl)benzofuran-2-yl)methyl)azetidine-1-carboxamide], the half-inhibitory concentration (IC50) was 0.1 to 5 µM in assay [3]; 0.1 to 5 µM in assay [1] (NIH3T3); less than 0.1 µM in assay [2] (Homo sapiens, Z-138).
For `Nc1ccc(NC(=O)NCc2cc3cc(-c4ccc(C(=O)N5CCC(F)(F)CC5)cc4)cc(-c4ccc(F)cc4)c3o2)cn1` [Compound 101, 1-(6-aminopyridin-3-yl)-3-((5-(4-(4,4-difluoropiperidine-1-carbonyl)phenyl)-7-(4-fluorophenyl)benzofuran-2-yl)methyl)urea], the IC50 in assay [3] was 0.1 to 5 µM; in assay [1] (NIH3T3), greater than 10 µM; in assay [2] (Homo sapiens, Z-138), 0.1 to 5 µM.
For the compound `O=C(NCc1ccc(-c2ccc(-c3ccc(C(=O)N4CCC(F)(F)CC4)cc3)cc2-c2ccc(F)cc2)o1)N1Cc2ccncc2C1` [Compound 120, N-((5-(4-(4,4-difluoropiperidine-1-carbonyl)-4″-fluoro-[1,1′:3′,1″-terphenyl]-4′-yl)furan-2-yl)methyl)-1,3-dihydro-2H-pyrrolo[3,4-c]pyridine-2-carboxamide], the IC50 in assay [1] (NIH3T3) is greater than 10 µM; in assay [2] (Homo sapiens, Z-138), less than 0.1 µM.
The corresponding values for `O=C(NCc1cccnc1)NCc1cc2cc(-c3ccc(C(=O)N4CCC(F)(F)CC4)cc3)cc(-c3ccc(F)cc3)c2o1` [Compound 104, 1-((5-(4-(4,4-difluoropiperidine-1-carbonyl)phenyl)-7-(4-fluorophenyl)benzofuran-2-yl)methyl)-3-(pyridin-3-ylmethyl)urea] are 0.1 to 5 µM and less than 0.1 µM.
On the same counts, the results for `CN(Cc1cc2cc(-c3ccc(C(=O)N4CCC(F)(F)CC4)cc3)cc(-c3ccc(F)cc3)c2o1)C(=O)N1Cc2ccncc2C1` [Compound 109, N-((5-(4-(4,4-difluoropiperidine-1-carbonyl)phenyl)-7-(4-fluorophenyl)benzofuran-2-yl)methyl)-N-methyl-1H-pyrrolo[3,4-c]pyridine-2(3H)-carboxamide] are 0.1 to 5 µM and less than 0.1 µM.
For the compound `O=C(NCc1cc2cc(-c3ccc(C(=O)N4CCC(F)(F)CC4)cc3)cc(C(F)(F)F)c2o1)N1Cc2ccncc2C1` [Compound 105, N-((5-(4-(4,4-difluoropiperidine-1-carbonyl)phenyl)-7-(trifluoromethyl)benzofuran-2-yl)methyl)-1H-pyrrolo[3,4-c]pyridine-2(3H)-carboxamide], the IC50 in assay [1] (NIH3T3) is greater than 10 µM; in assay [2] (Homo sapiens, Z-138), 0.1 to 5 µM.
On the same counts, the results for `O=C(NCc1cc2cc(-c3ccc(C(=O)N4CCC(F)(F)CC4)cc3)cc(-c3ccc(F)cc3)c2s1)N1Cc2ccncc2C1` [Compound 111, N-((5-(4-(4,4-difluoropiperidine-1-carbonyl)phenyl)-7-(4-fluorophenyl)benzo[b]thiophen-2-yl)methyl)-1H-pyrrolo[3,4-c]pyridine-2(3H)-carboxamide] are greater than 10 µM and less than 0.1 µM.
On the same counts, the results for `Nc1ccc(CNC(=O)NCc2cc3cc(-c4ccc(C(=O)N5CCC(F)(F)CC5)cn4)cc(-c4ccc(F)cc4)c3o2)cn1` [Compound 116, 1-((6-aminopyridin-3-yl)methyl)-3-((5-(5-(4,4-difluoropiperidine-1-carbonyl)pyridin-2-yl)-7-(4-fluorophenyl)benzofuran-2-yl)methyl)urea] are 0.1 to 5 µM and less than 0.1 µM.
The corresponding values for `Nc1ccc(CNC(=O)NCc2cc3cc(-c4ccc(C(=O)N5CCC(F)(F)CC5)cc4)cc(-c4ccc(F)cc4)c3s2)cn1` [Compound 114, 1-((6-aminopyridin-3-yl)methyl)-3-((5-(4-(4,4-difluoropiperidine-1-carbonyl)phenyl)-7-(4-fluorophenyl)benzo[b]thiophen-2-yl)methyl)urea] are greater than 10 µM and 5 to 10 µM.
For `Nc1ccc(CNC(=O)NCc2ccc(-c3ccc(-c4ccc(C(=O)N5CCC(F)(F)CC5)cc4)cc3-c3ccc(F)cc3)o2)cn1` [Compound 125, 1-((6-aminopyridin-3-yl)methyl)-3-((5-(3-(4-fluorophenyl)-4′-(4,4-difluoropiperidine-1-carbonyl)biphenyl-4-yl)furan-2-yl)methyl)urea], the IC50 in assay [1] (NIH3T3) is greater than 10 µM; in assay [2] (Homo sapiens, Z-138), less than 0.1 µM.
On the same counts, the results for `Nc1cc2c(cn1)CN(C(=O)NCc1cc3cc(-c4ccc(C(=O)N5CCC(F)(F)CC5)cc4)cc(-c4ccc(F)cc4)c3o1)C2` [Compound 115, 6-amino-N-((5-(4-(4,4-difluoropiperidine-1-carbonyl)phenyl)-7-(4-fluorophenyl)benzofuran-2-yl)methyl)-1H-pyrrolo[3,4-c]pyridine-2(3H)-carboxamide] are 0.1 to 5 µM and less than 0.1 µM.
On the same counts, the results for `O=C(NCC1Cc2cc(-c3ccc(C(=O)N4CCC(F)(F)CC4)cc3)cc(-c3ccc(F)cc3)c2O1)N1Cc2ccncc2C1` (stereo not shown) [Compound 122, N-((5-(4-(4,4-difluoropiperidine-1-carbonyl)phenyl)-7-(4-fluorophenyl)-2,3-dihydrobenzofuran-2-yl)methyl)-1,3-dihydro-2H-pyrrolo [3,4-c]pyridine-2-carboxamide] are less than 0.1 µM and less than 0.1 µM.
On the same counts, the results for `Nc1ccc(CNC(=O)NCC2Cc3cc(-c4ccc(C(=O)N5CCC(F)(F)CC5)cc4)cc(-c4ccc(F)cc4)c3O2)cn1` (stereo not shown) [Compound 123, 1-((6-aminopyridin-3-yl)methyl)-3-((5-(4-(4,4-difluoropiperidine-1-carbonyl)phenyl)-7-(4-fluorophenyl)-2,3-dihydrobenzofuran-2-yl)methyl)urea] are 0.1 to 5 µM and less than 0.1 µM.
For `O=C(NCc1cc2cc(-c3ccc(C(=O)N4CC(F)(F)C4)cc3)cc(C(F)(F)F)c2o1)N1Cc2ccncc2C1` [Compound 106, N-((5-(4-(3,3-difluoroazetidine-1-carbonyl)phenyl)-7-(trifluoromethyl)benzofuran-2-yl)methyl)-1H-pyrrolo[3,4-c]pyridine-2(3H)-carboxamide], the 50% inhibitory concentration (IC50) in assay [1] (NIH3T3) was greater than 10 µM; in assay [2] (Homo sapiens, Z-138), greater than 10 µM.
Take `Nc1ccc(CNC(=O)NCc2cc3cc(-c4ccc(C(=O)N5CCC(F)(F)CC5)cc4)cc(-c4ccc(F)cc4F)c3o2)cn1` [Compound 112, 1-((6-aminopyridin-3-yl)methyl)-3-((7-(2,4-difluorophenyl)-5-(4-(4,4-difluoropiperidine-1-carbonyl)phenyl)benzofuran-2-yl)methyl)urea]: the IC50 is 0.1 to 5 µM in assay [1] (NIH3T3) and less than 0.1 µM in assay [2] (Homo sapiens, Z-138).
The corresponding values for `O=C(NCc1cc2cc(-c3ccc(C(=O)N4CCC(F)(F)CC4)cn3)cc(-c3ccc(F)cc3)c2o1)N1Cc2ccncc2C1` [Compound 110, N-((5-(5-(4,4-difluoropiperidine-1-carbonyl)pyridin-2-yl)-7-(4-fluorophenyl)benzofuran-2-yl)methyl)-1H-pyrrolo[3,4-c]pyridine-2(3H)-carboxamide] are less than 0.1 µM and less than 0.1 µM.
On the same counts, the results for `Nc1ccc(CNC(=O)NCc2cc3cc(-c4ccc(C(=O)N5CCC(F)(F)CC5)cc4)cc(C(F)(F)F)c3o2)cn1` [Compound 113, 1-((6-aminopyridin-3-yl)methyl)-3-((5-(4-(4,4-difluoropiperidine-1-carbonyl)phenyl)-7-(trifluoromethyl)benzofuran-2-yl)methyl)urea] are greater than 10 µM and greater than 10 µM.
